Results published in patent US9522160B2, “Ophthalmic formulations” (Inotek Pharmaceuticals Corporation, priority 2013, dated 2016).

How the values were obtained:
normotensive monkeys = details: Compound A in combination with latanoprost; cited from earlier work
retinal ganglion cells = details: formulation of Compound A; cited from earlier work
[1] = Stability study of a 3% suspension of Compound A (Formulation 3) spiked with latanoprost; latanoprost and latanoprost acid by HPLC; format: physicochemical
Experimental: Latanoprost is added, usually aseptically, to the Formulation after the curing step or after all other formulation steps as described above. For example latanoprost can be spiked into Formulation 3 with Compound A at 3.0% (Example 5 above) to prepare a unit dosage of a combination of Compound A with a concentration of latanoprost of about 50 ug/ml. A stability study has been done to study the stability of a combination of a suspension of Compound A as Formulation 3 and latanoprost. The stability study is described below.
A 10 mL sample of a 3% suspension of Compound A spiked with latanoprost at 50 μg/mL was used for the stability study. Ethanol was used to disperse the latanoprost into the suspension of Compound A. The final solution ethanol target was 0.5% so for 10 mLs of the suspension, the latanoprost was dissolved in 50 μL of ethanol.
For 10 mls of the suspension, 0.5 mg of latanoprost was needed for the spike. A 50 μL sample of a commercial solution containing 10 mg/mL of latanoprost in methyl acetate was taken and the solvent removed under vacuum. The residue was taken up in 50 μL of ethanol.
A 9.950 mL sample of the suspension, taken with a 5 mL autopipette (2×4.975 mL) was spiked with the ethanol solution with mixing.
After taking a 500 μL T0 sample, the bulk solution was divided into 3 containers that were set down at 2-8° C., 25° C./60RH and 40° C./75RH.
The solution in this case would be 0.5 mg in 8.5 mL volume or […] of latanoprost in the suspension. Therefore for analysis, the theoretical latanoprost in solution after a 50% dilution with acetonitrile was 29.4 μg/mL.
A calibration curve of latanoprost acid was also prepared using the commercial solution that contained 10 mg/mL in methyl acetate.
In contrast to the latanoprost standards, these solutions were prepared in 100% acetonitrile.
The solutions injected were 5, 2.5 and 1.25 μg/mL solutions.
The stability samples were prepared by vortex mixing and sonication of the suspension followed by a 50% dilution with acetonitrile. After centrifugation the supernatant was injected on the HPLC.
The assay results are shown below in Table 2 where the calculated concentration is shown in μg/mL. (The theory concentration is 29.4 μg/ml),
4 week samples. For the 4 week 25° C./60 and 40° C./75 samples the calculated latanoprost acid values were 0.4 and 0.3 μg/mL respectively. The impurities increased slightly at 3 months. For the 3 month 25° C./60 and 40° C./75 samples the calculated latanoprost acid values were 0.63 and 3.92 μg/mL respectively.
Except for the 40° C./75 sample at 3 months the values for all other samples were below the calibration curve concentrations and therefore below the detection level of the method.

Which IOP reduction (normotensive monkeys) does the source give for `O=[N+]([O-])OC[C@H]1O[C@@H](n2cnc3c(NC4CCCC4)ncnc32)[C@H](O)[C@@H]1O` [Compound A, ((2R,3S,4R,5R)-5-(6-(cyclopentylamino)-9H-purin-9-yl)-3,4-dihydroxytetrahydrofuran-2-yl)methyl nitrate] here?
Its IOP reduction is “significant IOP reduction”.

What about the “neuroprotective effect on retinal ganglion cells” value (retinal ganglion cells) of the same compound?
The value was “neuroprotective effect”.

For `CC(C)OC(=O)CCC/C=C\C[C@@H]1[C@@H](CC[C@@H](O)CCc2ccccc2)[C@H](O)C[C@@H]1O` [Latanoprost, latanoprost], which “Latanoprost Assay Results” value ([1]; 2-8° C., 2 Weeks) is on record?
The value was 32.29 µg/mL.

What about the “Latanoprost Assay Results (% T0)” value ([1]; 2-8° C., 2 Weeks) of the same compound?
Its value is 109 % T0.

What about the “Latanoprost Assay Results (% T0)” value ([1]; 2-8° C., 3 Months) of the same compound?
Its value is 121.1 % T0.

And the “Latanoprost Assay Results” value ([1]; 2-8° C., 3 Months, sample contained some latanoprost impurities)?
The value was 35.63 µg/mL.

And the “Latanoprost Assay Results” value ([1]; 2-8° C., 4 Weeks)?
The value was 33.97 µg/mL.

What about the “Latanoprost Assay Results (% T0)” value ([1]; 2-8° C., 4 Weeks) of the same compound?
Its value is 115 % T0.

What about the “Latanoprost Assay Results” value ([1]; 25° C./60, 2 Weeks) of the same compound?
Its value is 32.37 µg/mL.

What about the “Latanoprost Assay Results (% T0)” value ([1]; 25° C./60, 2 Weeks) of the same compound?
The value was 110 % T0.

And the “Latanoprost Assay Results (% T0)” value ([1]; 25° C./60, 3 Months)?
Its value is 103.5 % T0.

What about the “Latanoprost Assay Results” value ([1]; 25° C./60, 3 Months, sample contained some latanoprost impurities) of the same compound?
The value was 30.42 µg/mL.

And the “Latanoprost Assay Results (% T0)” value ([1]; 25° C./60, 4 Weeks)?
The value was 112 % T0.

What about the “Latanoprost Assay Results” value ([1]; 25° C./60, 4 Weeks, sample contained some latanoprost impurities) of the same compound?
Its value is 32.90 µg/mL.

And the “Latanoprost Assay Results” value ([1]; 40° C./75, 2 Weeks)?
Its value is 31.35 µg/mL.

What about the “Latanoprost Assay Results (% T0)” value ([1]; 40° C./75, 2 Weeks) of the same compound?
Its value is 106 % T0.

What about the “Latanoprost Assay Results (% T0)” value ([1]; 40° C./75, 3 Months) of the same compound?
The value was 89.0 % T0.

And the “Latanoprost Assay Results” value ([1]; 40° C./75, 3 Months, sample contained some latanoprost impurities)?
Its value is 26.18 µg/mL.

And the “Latanoprost Assay Results (% T0)” value ([1]; 40° C./75, 4 Weeks)?
Its value is 101 % T0.

What about the “Latanoprost Assay Results” value ([1]; 40° C./75, 4 Weeks, sample contained some latanoprost impurities) of the same compound?
The value was 29.90 µg/mL.

And the “Latanoprost Assay Results” value ([1]; T0, 3% Compound A suspension spiked with latanoprost, 50% dilution with acetonitrile, theory concentration 29.4 μg/ml)?
The value was 29.49 µg/mL.

For `O=C(O)CCC/C=C\C[C@@H]1[C@@H](CC[C@@H](O)CCc2ccccc2)[C@H](O)C[C@@H]1O` [latanoprost acid], which “latanoprost acid present in stability sample” value (from here on “latanoprost acid present”) ([1]; 2-8° C., 4 week sample) is on record?
Its value is “No latanoprost acid was present”.

And the “latanoprost acid present” value ([1]; 2 week samples)?
Its value is “No latanoprost acid was present”.

And the “latanoprost acid present” value ([1]; T0 sample)?
The value was “No latanoprost acid was present”.
